Results reported in patent publication US20040033273A1, “Withasol and methods of use” (AyurCore, Inc., priority 2001, published 2004).
Read-outs that look alike come from different tables or passages of the source.

Assays:
[1] = system: BALB/c mouse implanted with ascitic sarcoma, CP treated; settings: for Hb / Platelet Count (×10^3mcl) / RBC Count (×10^6/mcl) / WBC Difference Count (%) Lymphocytes / WBC Difference Count (%) Polymorph / WBC Total Count (×10^3/mcl) / CF Titre (Log2) / HA Titre (Log2) / Difference in Weight (g) from Day 1 to 16: mean +/- SD
Description: This example describes dosing studies of WITHASOL in cyclophosphamide (CP) treated antigenically challenged BALB/c mouse animals implanted with ascitic sarcoma.
Following the established protocol, tumor was implanted on day 0. Test drugs as suspensions in 2.0% sterile CMC (vehicle) were prepared by Bio-Ved Laboratories. Antigenically sensitized (day 1) and challenged (day 10) mice, received test substances from day 1 to day 15 per oral route. Animals received appropriate vehicle (2.0% CMC) or CP (150 mg/kg) i.p. on day 11 and blood was collected on day 16. Body weights and gross observations were monitored during treatment.
Four doses, 400 mg/kg, 200 mg/kg, 100 mg/kg and 50 mg/kg of WITHASOL coded as R-1, R-2, R-3 and R-4, respectively, were used for this study. Decoding was done after the study was completed.
Data analysis was carried out using ANOVA single factor @<0.05 for comparison of the groups.

[2] = system: BALB/c mouse implanted with ascitic sarcoma (S-180), CP treated; settings: for Hb / Platelet Count (×10^3/mcl) / RBC Count (×10^6/mcl) / WBC Difference Count (%) Lymphocytes / WBC Difference Count (%) Polymorph / WBC Total Count (×10^3/mcl) / CF Titre (Log2) / HA Titre (Log2) / Difference in Weight (g) from Day 1 to 16: mean +/- SD
[3] = system: BALB/c mouse with ascitic sarcoma (S-180); settings: for survival rate: CP 150 mg/kg ip on day 11, compared with the other dose regimens
[4] = system: BALB/c mouse with ascitic sarcoma (S-180)
Excerpt: A study was then undertaken to determine the kinetics of cyclophosphamide treatment with respect to myelosuppression and immunosuppression. This step four aspect of the protocol establishes a time response curve for cyclophosphamide and determines optimal time for collection of blood samples and evaluation of hematological and serological parameters under the aforementioned conditions.
Mice were antigenically challenged with 0.5 cc of RBC suspension (1.0×10^8 cells/cc), intraperitoneally on day 1 as previously described. Mice from all groups were sensitized with RBC and a challenge dose was given on day 10.
Antibody titres were estimated using 96 well, U-bottom microtiter plates, double diluting serum samples and using 10% Human RBC suspension and complement (guinea pig serum).

[5] = Tumor +, CP +: CP 150 mg/kg ip day 11, WITHASOL po day 1-15 at 400 (R-1), 200 (R-2), 100 (R-3), 50 (R-4) mg/kg or vehicle (CP alone), blood day 16
[6] = Tumor +, CP +: CP 150 mg/kg ip day 11, WITHASOL po day 1-15 at 400 (R-1), 200 (R-2), 100 (R-3), 50 (R-4) mg/kg or vehicle (CP alone), day 16
[7] = Tumor −, CP +, vehicle: CP 150 mg/kg ip day 11, blood day 16
[8] = Tumor −, CP +, vehicle: CP 150 mg/kg ip day 11, day 16
[9] = Tumor −, CP +, vehicle: CP 150 mg/kg ip day 11
[10] = groups I and II: CP 150 mg/kg ip day 11 in tumor-free animals, day 16
[11] = groups III and IV: CP 150 mg/kg ip day 11 in tumor-bearing animals
[12] = groups III and IV: CP 150 mg/kg ip day 11 in tumor-bearing animals, day 16
[13] = Tumor +, CP +: CP 150 mg/kg ip day 11, coded drug 100 mg/kg (vehicle for CP alone) po day 1-15, blood day 16
[14] = Tumor +, CP +: CP 150 mg/kg ip day 11, coded drug 100 mg/kg (vehicle for CP alone) po day 1-15, serum day 16
[15] = Tumor −, CP +, vehicle: CP 150 mg/kg ip day 11, serum day 16
[16] = groups I and II: CP 150 mg/kg ip day 11 in tumor free animals, day 16
[17] = groups I and II: CP 3.0 mg/kg po days 4 to 19 vs vehicle, blood day 20
[18] = groups III and IV: CP 100 mg/kg ip days 7, 9, 11 vs vehicle, blood day 20
[19] = groups V and VI: CP 150 mg/kg ip day 11 vs vehicle, blood day 20
[20] = CP 150 mg/Kg ip day 11 vs vehicle, days 13, 15, 17, 19 and 21

O=P1(N(CCCl)CCCl)NCCCO1 (stereo not shown) [CP, cyclophosphamide]
Survival on Day 16 (Day of Bleeding): No. of Animals Survived ([1]; Tumor +, CP + groups: CP 150 mg/kg ip day 11, WITHASOL po day 1-15 at 400 (R-1), 200 (R-2), 100 (R-3), 50 (R-4) mg/kg or vehicle (CP alone)): 8
Hb [1, 5]: 12.8 ± 1.03 g/dL
Platelet Count (×10^3mcl) [1, 5]: 906.0 +/− 312.76 ×10^3mcl
RBC Count (×10^6/mcl) [1, 5]: 3.79 +/− 0.46 ×10^6/mcl
WBC Difference Count (%) Lymphocytes [1, 5]: 4.19 +/− 8.70%
WBC Difference Count (%) Polymorph [1, 5]: 58.1 +/− 8.70%
WBC Total Count (×10^3/mcl) [1, 5]: 6.2 +/− 2.17 ×10^3/mcl
CF Titre (Log2) [1, 6]: 3.5 +/− 0.53 Log2
HA Titre (Log2) [1, 6]: 3.3 +/− 0.89 Log2
Difference in Weight (g) from Day 1 to 16 ([1]; Tumor +, CP +: CP 150 mg/kg ip day 11, WITHASOL po day 1-15 at 400 (R-1), 200 (R-2), 100 (R-3), 50 (R-4) mg/kg or vehicle (CP alone)): 4.9 ± 2.36 g
Survival on Day 16 (Day of Bleeding): No. of Animals Survived ([1]; Tumor −, CP +, vehicle (group II)): 10
Hb [1, 7]: 12.9 ± 1.40 g/dL
Platelet Count (×10^3mcl) [1, 7]: 1170.2 +/− 152.33 ×10^3mcl
RBC Count (×10^6/mcl) [1, 7]: 4.04 +/− 0.54 ×10^6/mcl
WBC Difference Count (%) Lymphocytes [1, 7]: 76.7 +/− 4.35%
WBC Difference Count (%) Polymorph [1, 7]: 23.3 +/− 4.35%
WBC Total Count (×10^3/mcl) [1, 7]: 3.6 +/− 0.67 ×10^3/mcl
CF Titre (Log2) [1, 8]: 4.0 +/− 0.82 Log2
HA Titre (Log2) [1, 8]: 4.4 +/− 0.52 Log2
Difference in Weight (g) from Day 1 to 16 [1, 9]: 0.4 ± 0.52 g
change in body weights ([1]; groups I and II: CP 150 mg/kg ip day 11 in tumor-free animals): decreased
change in HA antibody titres [1, 10]: decreased
change in HL antibody titres [1, 10]: decreased
change in hemoglobin content [1, 10]: decreased
change in platelet counts [1, 10]: increased
change in red cell counts [1, 10]: decreased
change in white cell differential counts [1, 10]: no significant change
change in white cell total counts [1, 10]: decreased
change in body weights [1, 11]: decreased
change in HA antibody titres [1, 12]: decreased
change in HL antibody titres [1, 12]: decreased
change in hemoglobin content [1, 12]: no significant change
change in lymphocyte percentage [1, 12]: increased
change in platelet counts [1, 12]: no significant change
change in polymorph percentage [1, 12]: decrease
change in red cell counts [1, 12]: no significant change
change in white cell total counts [1, 12]: decrease
Hb [2, 13]: 11.07 ± 3.812 g/dL
Platelet Count (×10^3/mcl) [2, 13]: 614.17 +/− 287.466 ×10^3/mcl
RBC Count (×10^6/mcl) [2, 13]: 3.54 +/− 1.332 ×10^6/mcl
WBC Difference Count (%) Lymphocytes [2, 13]: 58.18 +/− 8.634%
WBC Difference Count (%) Polymorph [2, 13]: 41.42 +/− 8.634%
WBC Total Count (×10^3/mcl) [2, 13]: 4.53 +/− 0.797 ×10^3/mcl
CF Titre (Log2) [2, 14]: 1.83 +/− 0.408 Log2
HA Titre (Log2) [2, 14]: 2.17 +/− 0.837 Log2
Difference in Weight (g) from Day 1 to 16 ([2]; Tumor +, CP +: S-180 bearing antigen-challenged mice, CP 150 mg/kg ip day 11, coded drug 100 mg/kg (vehicle for CP alone) po day 1-15): -0.83 ± 2.563 g
Hb [2, 7]: 13.8 ± 1.103 g/dL
Platelet Count (×10^3/mcl) [2, 7]: 966.33 +/− 324.879 ×10^3/mcl
RBC Count (×10^6/mcl) [2, 7]: 4.37 +/− 0.718 ×10^6/mcl
WBC Difference Count (%) Lymphocytes [2, 7]: 63.73 +/− 2.7897%
WBC Difference Count (%) Polymorph [2, 7]: 36.2 +/− 2.7897%
WBC Total Count (×10^3/mcl) [2, 7]: 3.8 +/− 1.226 ×10^3/mcl
CF Titre (Log2) [2, 15]: 1.00 Log2
HA Titre (Log2) [2, 15]: 1.5 +/− 5.48 Log2
Difference in Weight (g) from Day 1 to 16 [2, 9]: -0.5 ± 0.837 g
change in body weights ([2]; groups I and II: CP 150 mg/kg ip day 11 in tumor free animals): decrease
change in HA antibody titers [2, 16]: decreased
change in HL antibody titers [2, 16]: decreased
change in hemoglobin content [2, 16]: No significant change
change in lymphocyte percent [2, 16]: decreased
change in platelet counts [2, 16]: No significant change
change in polymorph percent [2, 16]: Increased
change in red cell counts [2, 16]: lowered
change in white cell total counts [2, 16]: lowered
change in body weight [2, 11]: decreased
change in HA antibody titers [2, 12]: decreased
change in HL antibody titers [2, 12]: decreased
change in hemoglobin content [2, 12]: No significant change
change in lymphocyte percentage [2, 12]: increase
change in platelet counts [2, 12]: Decreased
change in polymorph percentage [2, 12]: Decreased
change in red cell counts [2, 12]: No significant change
change in white counts [2, 12]: Decreased
survival rate [3]: maximum survival rate
survival rate ([3]; listed as cyclophosphamide): greatest survival rate
change in weight of animals ([3]; all three CP doses (3.0 mg/kg po days 4-19; 100 mg/kg ip days 7, 9, 11; 150 mg/kg ip day 11) vs vehicle, t test): significant decrease
change in hemoglobin content [3, 17]: no significant change
change in lymphocytes [3, 17]: no significant change
change in monocyte counts [3, 17]: significantly increased
change in neutrophil counts [3, 17]: significantly lowered
change in platelet counts [3, 17]: no significant change
change in red cell counts [3, 17]: no significant change
change in total white cell counts [3, 17]: significantly lowered
change in hemoglobin content [3, 18]: no significant change
change in platelet counts [3, 18]: no significant change
change in red cell counts [3, 18]: no significant change
change in white cell differential counts [3, 18]: no significant change
change in white cell total counts [3, 18]: no significant change
change in hemoglobin content [3, 19]: no significant change
change in monocytes [3, 19]: no significant change
change in neutrophils [3, 19]: significant increase
change in platelet counts [3, 19]: no significant change
change in red cell counts [3, 19]: no significant change
change in white cell counts [3, 19]: significant increase
time of maximum myelosuppressive and immunosuppressive effect ([4]; CP 150 mg/Kg ip day 11, day after tumor implantation): day 15, or in between day 15 and day 17
change in platelet counts ([4]; CP 150 mg/Kg ip day 11 vs vehicle): unaffected
change in hemagglutinating antibody (HA) titers [4, 20]: decrease
change in hemolytic antibody titers (complement fixing-CF) [4, 20]: decrease
change in white blood cell counts ([4]; CP 150 mg/Kg ip day 11 vs vehicle, on day 13 and on day 15): significantly decreased
change in hemoglobin content ([4]; CP 150 mg/Kg ip day 11 vs vehicle, on day 17): significant decrease
change in red blood cell counts ([4]; CP 150 mg/Kg ip day 11 vs vehicle, on day 19 (P<0.09)): increased
tumor relapse ([4]; after a few days of cyclophosphamide treatment (150 mg/Kg ip day 11), animals died from tumor regrowth): Tumor relapse was observed
tumor regression ([4]; single cyclophosphamide dose of 150 mg/Kg ip on day 11): regression of tumor
